Here are results for 10 molecules from US11945813B2, “5-substituted 4-amino-1H-benzo[c][1,2,6]thiadiazine 2,2-dioxides and formulations and uses thereof” (Firmenich Incorporated, priority 2018, dated 2024).

This test deals with T1, T1R2/T1R3 taste receptor (Homo sapiens, UniProt Q8TE23).
T1 sequence (Q8TE23 20-839): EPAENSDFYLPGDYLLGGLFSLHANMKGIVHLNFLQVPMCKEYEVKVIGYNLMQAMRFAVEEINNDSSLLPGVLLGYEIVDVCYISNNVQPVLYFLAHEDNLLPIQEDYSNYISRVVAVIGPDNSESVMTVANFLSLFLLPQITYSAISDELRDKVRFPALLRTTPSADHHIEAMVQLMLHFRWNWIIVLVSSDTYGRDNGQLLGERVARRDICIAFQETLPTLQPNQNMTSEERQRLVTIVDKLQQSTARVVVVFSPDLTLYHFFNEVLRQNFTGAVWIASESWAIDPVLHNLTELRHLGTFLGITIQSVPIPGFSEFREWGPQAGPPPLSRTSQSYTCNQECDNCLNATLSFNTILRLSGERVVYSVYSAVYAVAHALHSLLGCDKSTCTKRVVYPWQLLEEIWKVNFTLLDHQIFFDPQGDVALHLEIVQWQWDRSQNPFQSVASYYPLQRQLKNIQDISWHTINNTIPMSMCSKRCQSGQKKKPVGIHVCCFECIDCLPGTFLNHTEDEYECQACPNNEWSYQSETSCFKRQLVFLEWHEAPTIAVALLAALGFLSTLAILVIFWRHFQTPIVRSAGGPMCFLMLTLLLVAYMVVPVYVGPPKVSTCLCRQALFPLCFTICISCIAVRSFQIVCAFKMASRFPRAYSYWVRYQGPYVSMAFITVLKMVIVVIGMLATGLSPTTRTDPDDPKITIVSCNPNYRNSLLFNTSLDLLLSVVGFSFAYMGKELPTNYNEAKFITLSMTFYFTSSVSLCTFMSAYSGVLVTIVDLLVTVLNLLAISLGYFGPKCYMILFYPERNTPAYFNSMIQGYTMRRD
T1 sequence (Q7RTX0 21-852 partner): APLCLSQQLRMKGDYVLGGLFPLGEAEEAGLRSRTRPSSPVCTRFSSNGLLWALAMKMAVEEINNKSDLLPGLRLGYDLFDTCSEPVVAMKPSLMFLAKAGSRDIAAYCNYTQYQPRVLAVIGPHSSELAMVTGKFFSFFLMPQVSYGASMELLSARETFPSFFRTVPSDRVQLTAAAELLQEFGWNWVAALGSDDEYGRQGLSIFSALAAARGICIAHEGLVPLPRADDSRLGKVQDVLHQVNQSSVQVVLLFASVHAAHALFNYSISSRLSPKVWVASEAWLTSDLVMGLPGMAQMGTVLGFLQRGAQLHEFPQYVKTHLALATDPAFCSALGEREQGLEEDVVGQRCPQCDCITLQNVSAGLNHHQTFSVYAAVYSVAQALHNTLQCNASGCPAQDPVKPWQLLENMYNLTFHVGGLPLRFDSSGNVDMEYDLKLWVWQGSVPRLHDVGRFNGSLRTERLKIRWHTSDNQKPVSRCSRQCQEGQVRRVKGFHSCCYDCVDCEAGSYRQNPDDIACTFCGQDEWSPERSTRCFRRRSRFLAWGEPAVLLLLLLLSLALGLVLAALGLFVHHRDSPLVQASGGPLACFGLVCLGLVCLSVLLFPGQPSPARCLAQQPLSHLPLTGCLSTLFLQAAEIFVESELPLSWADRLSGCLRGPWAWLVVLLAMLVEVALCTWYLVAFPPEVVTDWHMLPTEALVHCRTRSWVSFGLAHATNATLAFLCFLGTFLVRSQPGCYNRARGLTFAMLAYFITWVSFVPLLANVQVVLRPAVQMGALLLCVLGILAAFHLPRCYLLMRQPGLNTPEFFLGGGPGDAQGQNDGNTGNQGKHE
Description: Receptor-based assay: sweetener EC50 alone and with test compound (enhancement ratio). In kind it is cell-based. Particulars: for Sucralose Enhancement EC50 Ratio: sweetener sucralose; for Sucrose Enhancement EC50 Ratio: sweetener sucrose; for Fructose Enhancement EC50 Ratio: sweetener fructose. In short, it runs like this:
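Sucrose, sucralose or fructose EC50 measured on human T1R2/T1R3, alone and with 3, 10 or 50 μM test compound. Enhancement is the EC50 ratio without/with compound, binned A >20, B 10-20, C >1 to <10.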

As to `NC1=NS(=O)(=O)Nc2cccc(OC[C@H]3CCCN(c4ccc(C(=O)NCCO)cn4)C3)c21` [Compound 503], the “Sucralose Enhancement EC50 Ratio” value (10 μM test compound) was “A (An “A” value indicates an enhancement ratio of greater than 20)”. For the same molecule, the “Sucrose Enhancement EC50 Ratio” value is, setting by setting: (3 μM test compound) “C (A “C” value indicates an enhancement ratio greater than 1 and less than 10)”; (10 μM test compound) “C (A “C” value indicates an enhancement ratio greater than 1 and less than 10)”; (50 μM test compound) “C (A “C” value indicates an enhancement ratio greater than 1 and less than 10)”.

On to `COCCNC(=O)c1ccc(N2CCC[C@H](COc3cccc4c3C(N)=NS(=O)(=O)N4)C2)nc1` [Compound 504], for which, for the setting “50 μM test compound”, the “Fructose Enhancement EC50 Ratio” value is “C (A “C” value indicates an enhancement ratio greater than 1 and less than 10)”; the “Sucralose Enhancement EC50 Ratio” value is given as “A (An “A” value indicates an enhancement ratio of greater than 20)”; the “Sucrose Enhancement EC50 Ratio” value was “C (A “C” value indicates an enhancement ratio greater than 1 and less than 10)”. Also, under “10 μM test compound”, the “Sucralose Enhancement EC50 Ratio” value is on record as “A (An “A” value indicates an enhancement ratio of greater than 20)”; the “Sucrose Enhancement EC50 Ratio” value was “C (A “C” value indicates an enhancement ratio greater than 1 and less than 10)”. For the same molecule, where the note is “3 μM test compound”, the “Sucrose Enhancement EC50 Ratio” value was “C (A “C” value indicates an enhancement ratio greater than 1 and less than 10)”.

As for `CN(C)CCNC(=O)c1ccc(N2CCC[C@H](COc3cccc4c3C(N)=NS(=O)(=O)N4)C2)nc1` [Compound 505], under “50 μM test compound”, the “Fructose Enhancement EC50 Ratio” value is “C (A “C” value indicates an enhancement ratio greater than 1 and less than 10)”; the “Sucralose Enhancement EC50 Ratio” value is given as “A (An “A” value indicates an enhancement ratio of greater than 20)”; the “Sucrose Enhancement EC50 Ratio” value is “C (A “C” value indicates an enhancement ratio greater than 1 and less than 10)”. Under “10 μM test compound”, the “Sucralose Enhancement EC50 Ratio” value is “C (A “C” value indicates an enhancement ratio greater than 1 and less than 10)”; the “Sucrose Enhancement EC50 Ratio” value was “C (A “C” value indicates an enhancement ratio greater than 1 and less than 10)”. Also, the “Sucrose Enhancement EC50 Ratio” value (3 μM test compound) is “C (A “C” value indicates an enhancement ratio greater than 1 and less than 10)”.

Turning to `CC(C)NC(=O)c1ccc(N2CCC[C@H](COc3cccc4c3C(N)=NS(=O)(=O)N4)C2)nc1` [Compound 506], the “Sucralose Enhancement EC50 Ratio” value reads like this: (10 μM test compound) “A (An “A” value indicates an enhancement ratio of greater than 20)”; (50 μM test compound) “A (An “A” value indicates an enhancement ratio of greater than 20)”. Further, the “Sucrose Enhancement EC50 Ratio” value is, setting by setting: (3 μM test compound) “C (A “C” value indicates an enhancement ratio greater than 1 and less than 10)”; (10 μM test compound) “C (A “C” value indicates an enhancement ratio greater than 1 and less than 10)”; (50 μM test compound) “C (A “C” value indicates an enhancement ratio greater than 1 and less than 10)”.

Consider `NC1=NS(=O)(=O)Nc2cccc(OC[C@H]3CCCN(c4ccc(C(=O)NC5CC5)cn4)C3)c21` [Compound 507], for which, where the note is “50 μM test compound”, the “Fructose Enhancement EC50 Ratio” value was “C (A “C” value indicates an enhancement ratio greater than 1 and less than 10)”; the “Sucralose Enhancement EC50 Ratio” value is on record as “A (An “A” value indicates an enhancement ratio of greater than 20)”; the “Sucrose Enhancement EC50 Ratio” value is “C (A “C” value indicates an enhancement ratio greater than 1 and less than 10)”. For the setting “10 μM test compound”, the “Sucralose Enhancement EC50 Ratio” value is on record as “A (An “A” value indicates an enhancement ratio of greater than 20)”; the “Sucrose Enhancement EC50 Ratio” value was “C (A “C” value indicates an enhancement ratio greater than 1 and less than 10)”. For the setting “3 μM test compound”, the “Sucrose Enhancement EC50 Ratio” value was “C (A “C” value indicates an enhancement ratio greater than 1 and less than 10)”.

`NC1=NS(=O)(=O)Nc2cccc(OC[C@H]3CCCN(c4ccc(C(=O)NC5CCCC5)cn4)C3)c21` [Compound 508]: where the note is “50 μM test compound”, the “Fructose Enhancement EC50 Ratio” value is “C (A “C” value indicates an enhancement ratio greater than 1 and less than 10)”; the “Sucralose Enhancement EC50 Ratio” value was “A (An “A” value indicates an enhancement ratio of greater than 20)”; the “Sucrose Enhancement EC50 Ratio” value was “C (A “C” value indicates an enhancement ratio greater than 1 and less than 10)”. For the same molecule, for the setting “10 μM test compound”, the “Sucralose Enhancement EC50 Ratio” value is “B (A “B” value indicates an enhancement ratio from 10 to 20)”; the “Sucrose Enhancement EC50 Ratio” value is “C (A “C” value indicates an enhancement ratio greater than 1 and less than 10)”. Also, the “Sucrose Enhancement EC50 Ratio” value (3 μM test compound) is “C (A “C” value indicates an enhancement ratio greater than 1 and less than 10)”.

Consider `NC1=NS(=O)(=O)Nc2cccc(OC[C@H]3CCCN(c4ccc(C(=O)NC5CCCCC5)cn4)C3)c21` [Compound 509], for which the “Fructose Enhancement EC50 Ratio” value (50 μM test compound) is “C (A “C” value indicates an enhancement ratio greater than 1 and less than 10)”. The “Sucralose Enhancement EC50 Ratio” value reads like this: (10 μM test compound) “B (A “B” value indicates an enhancement ratio from 10 to 20)”; (50 μM test compound) “A (An “A” value indicates an enhancement ratio of greater than 20)”. Besides, the “Sucrose Enhancement EC50 Ratio” value (3 μM test compound) was “C (A “C” value indicates an enhancement ratio greater than 1 and less than 10)”; the “Sucrose Enhancement EC50 Ratio” value (10 μM test compound) is “C (A “C” value indicates an enhancement ratio greater than 1 and less than 10)”; the “Sucrose Enhancement EC50 Ratio” value (50 μM test compound) was “C (A “C” value indicates an enhancement ratio greater than 1 and less than 10)”.

For the molecule `CN(C)C(=O)c1ccc(N2CCC[C@H](COc3cccc4c3C(N)=NS(=O)(=O)N4)C2)nc1` [Compound 510], where the note is “50 μM test compound”, the “Fructose Enhancement EC50 Ratio” value is “C (A “C” value indicates an enhancement ratio greater than 1 and less than 10)”; the “Sucralose Enhancement EC50 Ratio” value was “A (An “A” value indicates an enhancement ratio of greater than 20)”; the “Sucrose Enhancement EC50 Ratio” value is on record as “A (An “A” value indicates an enhancement ratio of greater than 20)”. Under “10 μM test compound”, the “Sucralose Enhancement EC50 Ratio” value is “B (A “B” value indicates an enhancement ratio from 10 to 20)”; the “Sucrose Enhancement EC50 Ratio” value was “C (A “C” value indicates an enhancement ratio greater than 1 and less than 10)”. The “Sucrose Enhancement EC50 Ratio” value (3 μM test compound) is “C (A “C” value indicates an enhancement ratio greater than 1 and less than 10)”.

With `CCN(CC)C(=O)c1ccc(N2CCC[C@H](COc3cccc4c3C(N)=NS(=O)(=O)N4)C2)nc1` [Compound 511], where the note is “50 μM test compound”, the “Fructose Enhancement EC50 Ratio” value is “C (A “C” value indicates an enhancement ratio greater than 1 and less than 10)”; the “Sucralose Enhancement EC50 Ratio” value was “A (An “A” value indicates an enhancement ratio of greater than 20)”; the “Sucrose Enhancement EC50 Ratio” value is on record as “B (A “B” value indicates an enhancement ratio from 10 to 20)”. Also, for the setting “10 μM test compound”, the “Sucralose Enhancement EC50 Ratio” value was “A (An “A” value indicates an enhancement ratio of greater than 20)”; the “Sucrose Enhancement EC50 Ratio” value is “C (A “C” value indicates an enhancement ratio greater than 1 and less than 10)”. Moreover, the “Sucrose Enhancement EC50 Ratio” value (3 μM test compound) was “C (A “C” value indicates an enhancement ratio greater than 1 and less than 10)”.

`NC1=NS(=O)(=O)Nc2cccc(OC[C@H]3CCCN(c4ccc(C(=O)N5CCCC5)cn4)C3)c21` [Compound 512]: for the setting “50 μM test compound”, the “Fructose Enhancement EC50 Ratio” value is “C (A “C” value indicates an enhancement ratio greater than 1 and less than 10)”; the “Sucralose Enhancement EC50 Ratio” value is “A (An “A” value indicates an enhancement ratio of greater than 20)”; the “Sucrose Enhancement EC50 Ratio” value was “C (A “C” value indicates an enhancement ratio greater than 1 and less than 10)”. Moreover, for the setting “10 μM test compound”, the “Sucralose Enhancement EC50 Ratio” value was “A (An “A” value indicates an enhancement ratio of greater than 20)”; the “Sucrose Enhancement EC50 Ratio” value was “C (A “C” value indicates an enhancement ratio greater than 1 and less than 10)”. Moreover, the “Sucrose Enhancement EC50 Ratio” value (3 μM test compound) was “C (A “C” value indicates an enhancement ratio greater than 1 and less than 10)”.
